According to US6416642B1, “Method and apparatus for continuous liquid flow in microscale channels using pressure injection, wicking, and electrokinetic injection” (Caliper Technologies Corp., priority 1999, dated 2002):

Tested on: purinergic, P2Y receptor
Assay: Calcium flux assay in continuous-flow microfluidic device (Fluo-3 fluorescence)
Type: cell-based
Settings: THP-1 cells loaded with Fluo-3; UTP 0-3 μM; FIG. 13 upper trace
Procedure: Using a continuous flow format in planar chips using a wick to generate constant pressure driven flow, cells were mixed with an agonist and down-stream fluorescence detectors were used to monitor indicator cells using Fluo-3 (Molecular Probes Inc.) calcium sensitive fluorescent dye as a probe for receptor activation of calcium fluxes. THP-1 cells were loaded with Fluo-3 by incubation with a 4 μM concentration of the Fluo-3 AM (acetoxymethyl ester) in Hank's Balanced Salt Solution(HBSS) containing 20 mM HEPES, pH 7.0, and 1 mg/ml bovine serum albumin. After a 40 minute incubation at 37° C., Syto-6, a fluorescent DNA stain, was added to 2.5 μM, and the cells were incubated for an additional 10 minutes at room temperature. The cells were then washed free of excess dye by pelleting at 300×g for 5 minutes and resuspending and repelleting. The cells were resuspended in Cell Buffer (HBSS containing 20 mM HEPES, pH 7.0, 1 mg/ml BSA and 10% Optiprep). […]
By taking the ratio of the two fluorescent dyes, it is possible to normalize the calcium flux response in the THP-1 cells since the DNA staining intensity is a constant in diploid, resting cells, and thereby quantitate the increase in calcium concentration.

Structure (SMILES): O=c1ccn([C@@H]2O[C@H](COP(=O)(O)OP(=O)(O)OP(=O)(O)O)[C@@H](O)[C@H]2O)c(=O)[nH]1 [UTP]
- fluorescence of the calcium sensitive dye (intracellular free calcium): increases with UTP treatment in a dose dependent manner
